According to a melting point compilation (Tetko et al.; mined from patent text by program, amines drawn as free bases though some values may be those of a salt):

Compared with `CCC(=CC(CSc1nccn1C)=NO)C(C)[N+](=O)[O-]` (stereo not drawn), `CCSc1c(C=NO)c(=O)n(C)c(=O)n1C` is higher in melting point: 91 to 93 °C for the first, 161 to 163 °C for the second.

Compared with `CCc1c(CNS(=O)(=O)Cc2cccc(C(F)(F)F)c2)nn(-c2ccc(Cl)cc2Cl)c1-c1ccc(Br)cc1`, `CC(C)(c1ccc2ncccc2c1)n1nnc2ccc(-c3ccc(C(N)=O)c(F)c3)nc21` is higher in melting point: 108 °C for the first, 127 to 130 °C for the second.

First: Cc1c[nH]c(=O)n(-c2cc(C(=O)OC(C)C)c(Cl)cc2F)c1=O
Second: CCOC(=O)c1cc2cc(SC(=O)N(C)C)ccc2oc1=O
The melting point of the first is higher: 170 to 173 °C for the first, 133 to 134 °C for the second.

First: CN1CCC(C2(O)c3ccccc3CCn3cccc32)CC1 (stereo not drawn)
Second: O=C1CCc2cc(-c3ccccc3)ccc21
The melting point of the first is higher: 175 to 177 °C for the first, 75 °C for the second.

Compared with `COc1ccc2ccccc2c1CCNC(C)=O`, `CN(CCCl)S(=O)(=O)c1ccc2ccccc2c1` is lower in melting point: 139 °C for the first, 101 °C for the second.

First: COc1ccc(C2CN(Cc3ccc4ccccc4n3)C(=O)N(Cc3ccc4ccccc4n3)C2)cc1OC1CC2CCC1C2 (stereo not drawn)
Second: COc1c(OCc2ccccc2)c(OC)c2c(=O)cc(-c3ccc(OCc4ccccc4)cc3)oc2c1OC
The melting point of the first is lower: 135 to 136 °C for the first, 172 to 173 °C for the second.

First: Cc1ccc2[nH]c(C)c(-c3ccc(F)cc3)c2c1
Second: O=c1nc(-c2ccccc2F)c2ccccc2[nH]1
The melting point of the first is lower: 124 to 128 °C for the first, 281 to 285 °C for the second.

First: COc1ccc(C=C(Br)Br)cc1O
Second: COc1ccc(Br)c(O)c1O
The melting point of the first is lower: 94 to 95 °C for the first, 122 to 124 °C for the second.

First: c1ncn(Cc2nc(-c3ccc4c(c3)OCO4)c3cc4c(cc3n2)OCO4)n1
Second: COc1ccc(Cn2ncn(-c3ccc(N4CCN([C@H](C)[C@](O)(Cn5cncn5)c5ccc(F)cc5F)CC4)cc3)c2=O)cc1
The melting point of the first is higher: 195 to 198 °C for the first, 178 to 179 °C for the second.

First: CC(CCCO)C(c1cc(F)ccc1F)S(=O)(=O)c1ccc(Cl)cc1 (stereo not drawn)
Second: CCOC(=O)c1ccc(-c2csc(-c3ccc(Cl)cc3)n2)s1
The melting point of the first is lower: 67 to 69 °C for the first, 234 to 236 °C for the second.

Compared with `CCCCC(=O)Nc1c(C(=O)OC)cc(Cl)cc1[N+](=O)[O-]`, `COc1ccc(C(=O)O)c([N+](=O)[O-])c1` is higher in melting point: 84 to 85 °C for the first, 193 to 195 °C for the second.

First: CCc1cc2c(cc1C(C)=O)CC(NC(=O)C(F)(F)F)C2 (stereo not drawn)
Second: CCOC(=O)c1cn(CC)c2nc(N3CCC(NCC(C)=O)C3)c(F)cc2c1=O (stereo not drawn)
The melting point of the first is lower: 124 to 127 °C for the first, 212 to 213 °C for the second.

First: O=C(Nc1cccc(F)c1)Nc1ccnc(C(F)(F)F)c1
Second: CC(Oc1ccc(C(F)(F)F)cc1)c1ccnc2ncnn12 (stereo not drawn)
The melting point of the first is higher: 165 to 167 °C for the first, 100 to 102 °C for the second.

First: CC(Oc1ncn(-c2ccc(Br)cc2)n1)C(N)=O (stereo not drawn)
Second: CC(=O)N1CCN(c2nc(N)ncc2Oc2ccc(Cl)cc2)CC1
The melting point of the first is higher: 179 to 181 °C for the first, 153 to 157 °C for the second.

First: CCN(CC)C(=O)n1ccc(S(=O)(=O)c2ccc(Cl)cc2Cl)n1
Second: Cc1ccn(Cc2ccc(Cl)c(Cl)c2)c(=O)c1C#N
The melting point of the first is lower: 85 to 86 °C for the first, 178 to 180 °C for the second.

Compared with `O=C1NC(=O)c2c1c(-c1ccccc1Cl)cc1[nH]c3ccc(C(O)CO)cc3c21` (stereo not drawn), `C#Cc1ccc2c(c1)-c1c3c(c4c([nH]c5ccccc54)c1C2)C(=O)NC3` is higher in melting point: 265 to 268 °C for the first, greater than 300 °C for the second.

`O=C(c1ccccc1)C1OC1c1ccccc1Cl` (stereo not drawn) and `O=C(O)C1CCN1C(c1ccccc1)c1ccccc1` (stereo not drawn) cannot be ordered by melting point: 132 °C for the first, 132 to 137 °C for the second.

Compared with `Cc1oc(-c2ccco2)nc1COc1ccc(COc2ccccc2CC(=O)O)cc1`, `O=C(O)C(=O)c1ccc(OCCOc2ccc3ccccc3c2)cc1F` is lower in melting point: 167 to 168 °C for the first, 155 to 156 °C for the second.

First: CCOC(=O)c1c(N(C)C)cc(C(F)(F)F)nc1C(F)(F)F
Second: O=C(O)c1ccc(CBr)c(C(F)(F)F)c1
The melting point of the first is lower: 63.5 to 65 °C for the first, 136 to 140 °C for the second.

First: COc1c(N2CCC(CN)(CF)C2)c(F)cc2c(=O)c(C(=O)O)cn(C3CC3)c12 (stereo not drawn)
Second: COc1c(N2CCNC(C3CC3)C2)c(F)cc2c(=O)c(C(=O)O)cn([C@@H]3C[C@@H]3F)c12 (stereo partly drawn)
The melting point of the first is higher: 188 to 190 °C for the first, 136 to 139 °C for the second.

First: CCOC(=O)C=Cc1ccc(C(=O)Cl)cc1
Second: COC(=O)C(=CN(C)C)C(=O)C=Cc1ccc(Cl)cc1
The melting point of the first is lower: 76.8 °C for the first, 78 to 80 °C for the second.

First: CCOC(=O)c1cn(-c2nccs2)c2nc(N3CCC(NC(=O)[C@H](C)NC(=O)OC(C)(C)C)C3)ccc2c1=O (stereo partly drawn)
Second: CCOC(=O)c1ccc(C2=CCCCC2C(C)(C)C)cc1 (stereo not drawn)
The melting point of the first is higher: 138 to 140 °C for the first, 50 °C for the second.

First: C[C@@H](O)[C@H]1CC[C@H]2[C@@H]3C=CC4=CC(=O)C=C[C@]4(C)[C@H]3CC[C@]12C
Second: C=C(C)C1CCC2(CO)CCC3(C)C(CCC4C5(C)CCC(O)C(C)(CO)C5CCC43C)C12 (stereo not drawn)
The melting point of the first is lower: 162 to 164 °C for the first, 256 to 260 °C for the second.

Compared with `CC(=O)N1CCN(c2ncc3c(=O)c(C(=O)O)c[nH]c3n2)CC1`, `N#Cc1c(N2CCN(C(=O)c3ccco3)CC2)c2cc(F)cnc2n(CC(=O)c2ccccc2)c1=O` is lower in melting point: 298 to 300 °C for the first, 293 °C for the second.

Compared with `CC(C)CC=Cc1c(C(C)C)nc(C(C)C)c(CO)c1-c1ccc(F)cc1`, `CN(C)c1nc(N(C)C)c2nnn(Cc3ccccc3F)c2n1` is higher in melting point: 48 to 50 °C for the first, 123 to 125 °C for the second.

First: COc1ccc(N(N)c2ncnc3cc(Cl)ccc23)cc1
Second: COc1cc(Cc2cnc(N)nc2N)cc(OC)c1
The melting point of the first is lower: 124 to 127 °C for the first, 164 to 168 °C for the second.

Compared with `Cc1cc2c([nH]1)CC(c1ccccc1)CC2=O` (stereo not drawn), `Cc1nc2n(c(=O)c1C(N)=O)C(C)CCC2=NNc1ccccc1` (stereo not drawn) is higher in melting point: 203 to 205 °C for the first, 235 to 237 °C for the second.

First: Oc1nc2ccc(F)cc2n2c(C(F)(F)F)nnc12
Second: Cn1c(-c2ccccc2F)nnc1S(C)=O (stereo not drawn)
The melting point of the first is higher: 298 to 302 °C for the first, 95 to 97 °C for the second.

First: COc1cc(C=CC(=O)OC2CC3C(O)C(OC(=O)C=Cc4cc(OC)c(OC)c(OC)c4)C(C2)N3C)cc(OC)c1OC (stereo not drawn)
Second: COc1cc(C)c(C(=O)c2c(C)cncc2Br)c(OC)c1OC
The melting point of the first is lower: 59 to 61 °C for the first, 88 to 93 °C for the second.

Compared with `CC(C)(C)OC(=O)N1CCC(CNc2ccccn2)CC1`, `COC(=O)COc1c(Cl)cc(C(=O)CN2CCN(c3ccncc3)CC2)cc1Cl` is higher in melting point: 126 to 130 °C for the first, 149 to 150 °C for the second.

First: CCON=C(CC)C1=C(O)CC(c2ccc(Sc3ccc(S(C)(=O)=O)cn3)cc2)CC1=O (stereo not drawn)
Second: Cc1cc2c(N=C3SCC4Cc5sccc5CN34)cccc2cn1 (racemic)
The melting point of the first is lower: 126 to 128 °C for the first, 159 °C for the second.

First: C(=C\c1cc(/C=C/c2ccc3cc[nH]c3c2)n[nH]1)/c1ccc(Oc2ccccc2)cc1
Second: O=C(OCc1cc(OCCCO)cc(OCCCO)c1)c1ccccc1
The melting point of the first is higher: 175 to 182 °C for the first, 78 to 82 °C for the second.

First: CN1CS(=O)c2cccc(F)c21 (stereo not drawn)
Second: Nc1ccccc1CCN1CCCCC1
The melting point of the first is higher: 122 to 124 °C for the first, 36 to 38 °C for the second.

First: O=C(NCCC1CCCCC1)c1c(Cl)ccc2nc(N3CCC(C(=O)O)CC3)ccc12
Second: CC(=O)Nc1cc(C(=O)OCCN2CCCCC2)c2oc(-c3ccccc3)cc2c1
The melting point of the first is higher: 253 to 256 °C for the first, 172 to 174 °C for the second.

First: C=Cc1ccc(CCOC(=O)CC(C)NC(N)=O)cc1 (stereo not drawn)
Second: Nc1ccccc1Sc1c(N)[nH]c(=O)[nH]c1=O
The melting point of the first is lower: 117 to 119 °C for the first, greater than 310 °C for the second.

Compared with `CS(=O)(=O)NC1CCCOc2ccc([N+](=O)[O-])cc21` (stereo not drawn), `Cc1cc2c(cc1O)OCCC2=O` is higher in melting point: 96 to 98 °C for the first, 185 to 186 °C for the second.

With `Cc1cc(Cl)c(C)cc1O` the melting point was 74 to 75 °C.
